Data taken from PubChem BioAssay (NCI).
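Values below derive from 48-hour exposures of cells grown in 96-well plates, with endpoints linearly interpolated between the two concentrations bracketing the appropriate inhibition level. GI50: concentration for 50% inhibition of growth. TGI marks complete inhibition of growth.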

What was measured:
Experiment in all cases: NCI-60 cell line screen, 48 h
[1] = tested on: RXF 393 renal
[2] = tested on: U251 CNS
[3] = tested on: HOP-92 NSCLC
[4] = tested on: SF-268 CNS
[5] = tested on: HL-60(TB) leukemia
[6] = tested on: OVCAR-4 ovarian
[7] = tested on: K-562 leukemia
[8] = tested on: IGROV1 ovarian
[9] = tested on: DU-145 prostate
[10] = tested on: M14 melanoma
[11] = tested on: SK-MEL-2 melanoma
[12] = tested on: NCI-H23 lung
[13] = tested on: UACC-62 melanoma
[14] = tested on: A498 renal
[15] = tested on: OVCAR-5 ovarian
[16] = tested on: SW-620 colon
[17] = tested on: HOP-62 NSCLC
[18] = tested on: NCI-H460 lung
[19] = tested on: HCT-116 colon
[20] = tested on: MCF7 breast
[21] = tested on: HCT-15 colon
[22] = tested on: HS 578T breast
[23] = tested on: MOLT-4 leukemia
[24] = tested on: NCI/ADR-RES ovarian
[25] = tested on: BT-549 breast
[26] = tested on: RPMI-8226 leukemia
[27] = tested on: OVCAR-8 ovarian
[28] = tested on: MDA-MB-435
[29] = tested on: UO-31 renal
[30] = tested on: SF-539 CNS
[31] = tested on: OVCAR-3 ovarian
[32] = tested on: T-47D breast
[33] = tested on: EKVX NSCLC
[34] = tested on: MALME-3M melanoma
[35] = tested on: CAKI-1 renal
[36] = tested on: HCC-2998 colon
[37] = tested on: PC-3 prostate
[38] = tested on: CCRF-CEM leukemia
[39] = tested on: ACHN renal
[40] = tested on: 786-0 renal
[41] = tested on: SR leukemia
[42] = tested on: SK-MEL-28 melanoma
[43] = tested on: LOX IMVI melanoma
[44] = tested on: SN12C renal
[45] = tested on: TK-10 renal
[46] = tested on: MDA-MB-468 breast
[47] = tested on: NCI-H522 lung
[48] = tested on: SK-MEL-5 melanoma
[49] = tested on: SK-OV-3 ovarian
[50] = tested on: SNB-75 CNS
[51] = tested on: COLO 205 colon
[52] = tested on: KM12 colon
[53] = tested on: A549 NSCLC
[54] = tested on: UACC-257 melanoma
[55] = tested on: HT29 colon
[56] = tested on: SNB-19 CNS
[57] = tested on: SF-295 CNS
[58] = tested on: NCI-H226 lung
[59] = tested on: MDA-MB-231 breast

## COc1ccc(CCN2C(=O)/C(=C/c3csc(C#N)n3)SC2=S)cc1OC
[1]
  GI50: 3.56 µM
  TGI: 12.6 µM
[2]
  GI50: 14.8 µM
  TGI: 29.9 µM
[3]
  GI50: 2.12 µM
  TGI: 8.56 µM
[4]
  GI50: 12.2 µM
  TGI: 27 µM
[5]
  GI50: 14.6 µM
  TGI: 40.1 µM
[6]
  GI50: 11.4 µM
  TGI: 32.9 µM
[7]
  GI50: 2.97 µM
  TGI: 15.5 µM
[8]
  GI50: 18.2 µM
  TGI: 41.7 µM
[9]
  GI50: 2.96 µM
  TGI: 10.5 µM
[10]
  GI50: 13.8 µM
  TGI: 49.1 µM
[11]
  GI50: 13.3 µM
  TGI: 28.6 µM
[12]
  GI50: 14.6 µM
  TGI: 28 µM
[13]
  GI50: 11.5 µM
  TGI: 23.9 µM
[14]
  GI50: 18.6 µM
  TGI: 68 µM
[15]
  GI50: 21.2 µM
  TGI: 69.5 µM
[16]
  GI50: 3.15 µM
  TGI: 11.7 µM
[17]
  GI50: 22 µM
  TGI: 69.6 µM
[18]
  GI50: 17.4 µM
  TGI: 38.7 µM
[19]
  GI50: 4.55 µM
  TGI: 16.9 µM
[20]
  GI50: 3.3 µM
  TGI: 15.7 µM
[21]
  GI50: 5.3 µM
  TGI: 20.9 µM
[22]
  GI50: 19.8 µM
  TGI: 72.9 µM
[23]
  GI50: 3.94 µM
  TGI: 25.4 µM
[24]
  GI50: 16.3 µM
  TGI: 35.7 µM
[25]
  GI50: 11.4 µM
  TGI: 24.2 µM
[26]
  GI50: 3.03 µM
  TGI: 19.9 µM
[27]
  GI50: 15.4 µM
  TGI: 30.5 µM
[28]
  GI50: 13.6 µM
  TGI: 29.3 µM
[29]
  GI50: 5.08 µM
  TGI: 23.9 µM
[30]
  GI50: 12.5 µM
  TGI: 25 µM
[31]
  GI50: 4.99 µM
  TGI: 18 µM
[32]
  GI50: 3.22 µM
  TGI: 20.6 µM
[33]
  GI50: 22.2 µM
  TGI: 60 µM
[34]
  GI50: 11.9 µM
  TGI: 29.7 µM
[35]
  GI50: 16.5 µM
  TGI: 33.3 µM
[36]
  GI50: 15.3 µM
  TGI: 29.9 µM
[37]
  GI50: 15.6 µM
  TGI: 37.9 µM
[38]
  GI50: 3.38 µM
  TGI: 11.4 µM
[39]
  GI50: 13.4 µM
  TGI: 31.4 µM
[40]
  GI50: 5.56 µM
  TGI: 18.9 µM
[41]
  GI50: 2.46 µM
  TGI: 8.72 µM
[42]
  GI50: 12.1 µM
  TGI: 25.3 µM
[43]
  GI50: 2.9 µM
  TGI: 10.6 µM
[44]
  GI50: 11.9 µM
  TGI: 26.4 µM
[45]
  GI50: 3.13 µM
  TGI: 10.3 µM
[46]
  GI50: 2.67 µM
  TGI: 14.9 µM
[47]
  GI50: 2.68 µM
  TGI: 13.5 µM
[48]
  GI50: 13.6 µM
  TGI: 28.8 µM
[49]
  GI50: 66.8 µM
  TGI: > 100 µM
[50]
  GI50: 22.6 µM
  TGI: > 100 µM
[51]
  GI50: 21.6 µM
  TGI: 87.5 µM
[52]
  GI50: 3.71 µM
  TGI: 15.2 µM
[53]
  GI50: 35 µM
  TGI: > 100 µM
[54]
  GI50: 11 µM
  TGI: 34 µM
[55]
  GI50: 13.5 µM
  TGI: 27.6 µM
[56]
  GI50: 20.7 µM
  TGI: 54 µM
[57]
  GI50: 83.8 µM
  TGI: > 100 µM
[58]
  GI50: 15.8 µM
  TGI: 41.5 µM
[59]
  GI50: 12 µM
  TGI: 28.8 µM
